Measurements taken from patent publication US20100081690A1, “OXAZOLE DERIVATIVES AS POSITIVE ALLOSTERIC MODULATORS OF METABOTROPIC GLUTAMATE RECEPTORS” (ADDEX PHARMA SA, priority 2006, published 2010).

Legend:
rat mGluR5 = target: T1, rat mGluR5 (Rattus norvegicus, UniProt P31424); assay: mGluR5 assay on HEK-expressing rat mGluR5 (fluorescent cell based Ca2+ mobilization); settings: HEK-293 cells stably expressing rat mGluR5, no co-addition of glutamate; mean of at least three independent experiments in duplicate; read-out: Ca2+ Flux (mean EC50)
T1 construct: expressed in transfected cells
Procedure: Positive functional expression of HEK-293 cells stably expressing rat mGluR5 receptor was determined by measuring intracellular Ca^2+ changes using a Fluorometric Imaging Plate Reader (FLIPR, Molecular Devices, Sunnyvale, Calif.) in response to glutamate or selective known mGluR5 agonists and antagonists. Rat mGluR5RT-PCR products in HEK-293 cells were sequenced and found 100% identical to rat mGluR5Genbank reference sequence (NM_017012). HEK-293 cells expressing rmGluR5 were maintained in media containing DMEM, dialyzed Fetal Bovine Serum (10%), Glutamax™ (2 mM), Penicillin (100 units/ml), Streptomycin (100 μg/ml), Geneticin (100 μg/ml) and Hygromycin-B (40 μg/ml) at 37° C./5% CO2.
After one day of incubation, cells were washed with assay buffer containing: 142 mM NaCl, 6 mM KCl, 1 mM […], 1 mM CaCl2, 20 mM HEPES, 1 g/L glucose, 0.125 mM sulfinpyrazone, pH 7.4. After 60 min of loading with 4 uM Fluo-4 (TefLabs, Austin, Tex.), the cells were washed three times with 50 μl of PBS Buffer and resuspended in 45 μl of assay Buffer. The plates were then transferred to a Fluorometric Imaging Plate Reader (FLIPR, Molecular Devices, Sunnyvale, Calif.) for the assessment of intracellular calcium flux. After monitoring the baseline fluorescence for 10 seconds, increasing concentrations of representative compound (from 0.01 to 60 μM) of the present invention diluted in Assay Buffer (15 μl of 4× dilutions) was added to the cell. The final DMSO concentration in the assay was 0.3%. In each experiment, fluorescence was then monitored as a function of time for 3 minutes and the data analyzed using Microsoft Excel and GraphPad Prism. Each data point was also measured two times.
Under these experimental conditions, this HEK-rat mGluR5 cell line is able to directly detect positive allosteric modulators without the need of co-addition of glutamate or mGluR5 agonist.
The concentration-response curves of representative compounds of the present invention were generated using the Prism GraphPad software (Graph Pad Inc, San Diego, USA). The curves were fitted to a four-parameter logistic equation:
(Y=Bottom+(Top-Bottom)/(1+10̂((Log EC50−X)*Hill Slope)
allowing determination of EC50 values.
The Table 1 below represents the mean EC50 obtained from at least three independent experiments of selected molecules performed in duplicate.

mGluR5 = target: T2, mGluR5 (Rattus norvegicus, UniProt P31424); assay: mGluR5 binding assay ([3H]-MPEP, rat brain membranes); settings: competition with 3 nM [3H]-MPEP, rat cortical membranes, 1 h at 4° C.
T2 construct: positive allosteric modulators of mGluR5 receptors in native preparations; endogenous in cells; host or cells: primary cortical astrocytes from Sprague-Dawley rat embryos (E16-19)
Source text: Activity of compounds of the invention was examined following a radioligand binding technique using whole rat brain and tritiated 2-methyl-6-(phenylethynyl)-pyridine ([^3H]-MPEP) as a ligand following similar methods than those described in Gasparini et al. (2002) Bioorg. Med. Chem. Lett. 12:407-409 and in Anderson et al. (2002) J. Pharmacol. Exp. Ther. 303 (3) 1044-1051.
Cortices were dissected out from brains of 200-300 g Sprague-Dawley rats (Charles River Laboratories, L'Arbresle, France). Tissues were homogenized in 10 volumes (vol/wt) of ice-cold 50 mM Hepes-NaOH (pH 7.4) using a Polytron disrupter (Kinematica AG, Luzern, Switzerland) and centrifuged for 30 min at 40,000 g. (4° C.). […] Protein concentration was determined by the Bradford method (Bio-Rad protein assay, Reinach, Switzerland) with bovine serum albumin as standard.
Membranes were thawed and resuspended in binding buffer containing 20 mM HEPES-NaOH, 3 mM MgCl2, 3 mM CaCl2, 100 mM NaCl, pH 7.4. […] Radioactivity was determined by liquid scintillation spectrometry using a 96-well plate reader (TopCount, Perkin-Elmer, Downers Grove, USA).
The inhibition curves were generated using the Prism GraphPad program (Graph Pad Software Inc, San Diego, USA). […] The mean of IC50 obtained from at least three independent experiments of selected molecules performed in duplicate were calculated.

T2 sequence (P31424 21-1203): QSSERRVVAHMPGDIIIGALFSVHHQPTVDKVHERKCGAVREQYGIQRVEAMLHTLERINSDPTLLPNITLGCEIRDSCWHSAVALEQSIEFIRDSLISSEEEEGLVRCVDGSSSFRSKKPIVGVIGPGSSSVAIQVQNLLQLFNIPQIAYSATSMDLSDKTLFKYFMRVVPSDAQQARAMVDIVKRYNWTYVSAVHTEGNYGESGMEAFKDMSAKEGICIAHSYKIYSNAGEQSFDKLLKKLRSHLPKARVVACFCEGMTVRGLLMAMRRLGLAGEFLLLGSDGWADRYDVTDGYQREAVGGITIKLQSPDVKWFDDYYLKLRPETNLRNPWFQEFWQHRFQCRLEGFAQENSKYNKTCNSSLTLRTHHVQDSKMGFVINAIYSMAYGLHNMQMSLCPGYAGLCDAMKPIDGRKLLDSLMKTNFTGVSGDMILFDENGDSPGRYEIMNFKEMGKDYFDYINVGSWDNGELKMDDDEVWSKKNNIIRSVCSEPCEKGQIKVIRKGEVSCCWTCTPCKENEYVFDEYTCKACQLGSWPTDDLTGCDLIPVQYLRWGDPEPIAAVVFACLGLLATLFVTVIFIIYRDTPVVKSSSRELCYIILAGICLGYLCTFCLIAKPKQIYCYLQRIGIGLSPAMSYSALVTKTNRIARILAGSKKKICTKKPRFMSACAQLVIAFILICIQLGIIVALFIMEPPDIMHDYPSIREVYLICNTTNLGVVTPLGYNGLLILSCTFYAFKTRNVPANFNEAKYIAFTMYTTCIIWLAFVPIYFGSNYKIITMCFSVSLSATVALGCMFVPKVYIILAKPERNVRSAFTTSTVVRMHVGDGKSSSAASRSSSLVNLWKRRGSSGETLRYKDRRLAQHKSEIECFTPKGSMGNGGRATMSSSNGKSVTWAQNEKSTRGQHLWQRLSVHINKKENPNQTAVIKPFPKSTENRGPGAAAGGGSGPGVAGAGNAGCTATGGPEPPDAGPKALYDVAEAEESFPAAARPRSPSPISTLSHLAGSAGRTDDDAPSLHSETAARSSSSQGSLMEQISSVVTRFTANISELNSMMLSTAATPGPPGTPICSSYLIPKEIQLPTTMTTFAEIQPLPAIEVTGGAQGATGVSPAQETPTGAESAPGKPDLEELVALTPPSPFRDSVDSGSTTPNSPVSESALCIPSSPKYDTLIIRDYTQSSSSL
T1 sequence (P31424 21-1171 isoform P31424-2 limits assumed): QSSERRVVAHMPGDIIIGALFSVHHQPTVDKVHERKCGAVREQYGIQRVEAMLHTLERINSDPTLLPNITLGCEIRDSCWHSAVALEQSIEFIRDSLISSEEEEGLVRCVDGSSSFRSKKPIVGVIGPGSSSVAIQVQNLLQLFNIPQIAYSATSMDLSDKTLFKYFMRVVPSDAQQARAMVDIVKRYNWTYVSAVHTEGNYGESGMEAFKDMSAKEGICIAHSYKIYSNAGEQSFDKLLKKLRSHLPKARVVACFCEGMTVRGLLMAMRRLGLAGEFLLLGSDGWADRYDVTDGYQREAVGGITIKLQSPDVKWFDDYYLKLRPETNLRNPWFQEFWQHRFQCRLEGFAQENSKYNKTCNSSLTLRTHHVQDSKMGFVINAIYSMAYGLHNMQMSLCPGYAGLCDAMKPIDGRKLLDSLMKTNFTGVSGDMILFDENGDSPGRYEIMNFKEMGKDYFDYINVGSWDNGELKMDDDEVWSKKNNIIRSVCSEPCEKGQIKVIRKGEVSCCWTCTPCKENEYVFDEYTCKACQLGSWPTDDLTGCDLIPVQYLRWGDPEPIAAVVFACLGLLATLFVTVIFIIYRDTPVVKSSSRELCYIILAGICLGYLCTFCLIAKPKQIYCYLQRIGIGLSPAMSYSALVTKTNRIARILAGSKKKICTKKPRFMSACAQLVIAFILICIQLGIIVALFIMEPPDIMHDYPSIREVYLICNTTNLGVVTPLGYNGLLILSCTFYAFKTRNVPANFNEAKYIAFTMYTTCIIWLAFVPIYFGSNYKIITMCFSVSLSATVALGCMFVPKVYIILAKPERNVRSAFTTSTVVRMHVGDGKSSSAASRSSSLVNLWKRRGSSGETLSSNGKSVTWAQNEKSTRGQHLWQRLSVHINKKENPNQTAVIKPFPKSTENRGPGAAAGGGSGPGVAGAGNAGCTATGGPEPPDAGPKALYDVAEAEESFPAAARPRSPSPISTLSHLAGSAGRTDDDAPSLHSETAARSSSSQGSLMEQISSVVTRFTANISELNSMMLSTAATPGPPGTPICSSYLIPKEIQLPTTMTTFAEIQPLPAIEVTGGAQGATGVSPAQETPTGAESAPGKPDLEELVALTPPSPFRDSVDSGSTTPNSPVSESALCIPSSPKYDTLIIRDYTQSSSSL

melting point: 136 °C
EC50 (rat mGluR5): < 1000 nM
IC50 (mGluR5): < 10 µM
SMILES: O=C(c1ccc(F)cc1)N1CCC[C@H](c2nc(-c3cc(F)c[nH]3)co2)C1 [Example 1, (4-Fluoro-phenyl)-{(S)-3-[4-(4-fluoro-1H-pyrrol-2-yl)-oxazol-2-yl]-piperidin-1-yl}-methanone]
